Measured values: patent US9216147B2, “Mild cosmetic cleansing composition” (Henkel AG & Co. KGaA, priority 2011, dated 2015)

Legend:
[1] = Irritation test (reaction time method) against commercially available baby and children's shampoos; details: 5% in water (reference)
Experimental: Cleansing agents 1 and 2 were compared in a test (reaction time method) with various commercially available baby and children's shampoos. The shampoos were diluted down to 50% with water in each case.
A 5% sodium laureth sulfate solution served as a reference.
A Q value of >1.20 denotes an irritating effect; a Q value of <0.8 denotes slight irritation.

[2] = pH of the diluted test solution; format: physicochemical; details: 5% in water

pH [2]: 7.2
Substance: sodium laureth sulfate [Reference (SLES, 5% in water)]
Reaction time method [Q] [1]: 1.00
